Results from patent US10112913B2, “Substituted [1,2,4]triazole and imidazole compounds as fungicides” (BASF SE, priority 2014, dated 2018).

Tested on: Fusarium culmorum
Test: Activity against root rot caused by Fusarium culmorum (Fusacu), microtiter test
Assay type: cell-based
Conditions: 31 ppm; Fusarium culmorum spore suspension; 18° C.; 405 nm, 7 days after inoculation

CC(C)CC#Cc1ccc(C(O)(Cn2cncn2)C(C)(C)C)cc1 (stereo not shown) [I.C-2]
growth (relative growth of the pathogen vs active compound-free control = 100%): 0%
